# Patent US12533386B2, “Preparation of black tea extract with high theaflavin content and use thereof” (Huanggang Normal University, priority 2022, dated 2026)
# Test system: atherosclerosis in ApoE−/− (ApoE-KO) mice
# Experiment: Atherosclerosis mouse model (ApoE-KO, high fat diet), histological analyses
# Format: in vivo
# Details: 2.5 mg and 7.5 mg theaflavin treatment, especially high dose of 7.5 mg; versus high fat diet group
# Description: Twenty four model male ApoE−/− (ApoE-KO) mice were fed a high fat diet for 6 weeks to develop established atherosclerosis. At 8 weeks of age, they were divided into 4 treatment groups: control, high fat diet, 2.5 mg theaflavin treatment, and 7.5 mg theaflavin treatment. 8 weeks after commencement of the study, ApoE-KO mice were anaesthetized. All animal experiments were performed in accordance with the Guidelines for the Care and Use of Laboratory Animals, Ministry of Science and Technology, China. This study was approved by the Animal Care and Scientific Committee of Huanggang Normal University, Hubei, China.
smiles,measurement,value
O=c1c(O)cc([C@H]2Oc3cc(O)cc(O)c3C[C@H]2O)cc2c([C@H]3Oc4cc(O)cc(O)c4C[C@H]3O)cc(O)c(O)c12 [theaflavin],"tissue damages in histology (aorta, adipose)",could reverse some of the tissue damages
